Here are results for five molecules from ChEMBL document CHEMBL1124825 (J Med Chem, 1990).

Assay [1] can be described thus: Relative influx was determined by taking the ratio vs MTX in L1210 cell line. It is filed as functional.
The target in a further assay is T1, Dihydrofolate reductase (Mus musculus, UniProt P00375).
T1 sequence (P00375 whole entry): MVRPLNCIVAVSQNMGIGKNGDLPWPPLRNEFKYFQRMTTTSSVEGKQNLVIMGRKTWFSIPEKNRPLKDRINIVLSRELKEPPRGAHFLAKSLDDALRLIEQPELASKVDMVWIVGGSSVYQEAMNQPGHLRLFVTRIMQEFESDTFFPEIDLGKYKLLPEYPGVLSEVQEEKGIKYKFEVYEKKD
The experiment in a line: Inhibitory activity of Dihydrofolate reductase derived from L1210 cell line. It is filed as cell-based.

In a further assay the test system is L1210. As to the kind of experiment: Inhibitory activity for the growth inhibition of L1210 cell line. It is filed as functional, cell-based. Particulars: Mus musculus.
Assay [2] in a line: Inhibitory activity for Lactobacillus casei Glycinamide ribotide formyltransferase. On the set-up: species or system Lacticaseibacillus casei.
Assay [3] can be described thus: Inhibitory activity for L1210 Glycinamide ribotide formyltransferase. Further details: species or system Mus musculus.

Some results are limits rather than exact numbers.

For `CC(Cc1cnc2nc(N)nc(N)c2c1)c1ccc(C(=O)NC(CCC(=O)O)C(=O)O)cc1` (stereo unspecified), the Relative influx in assay [1] is listed as 1.43. This molecule also yielded a Ki at Dihydrofolate reductase of 0.007 nM. The same molecule had a 50% inhibitory concentration (IC50) in the assay with L1210 of 23.9 nM.

Regarding `CCC(Cc1cnc2nc(N)nc(N)c2c1)c1ccc(C(=O)NC(CCC(=O)O)C(=O)O)cc1` (stereo unspecified), in assay [1], the Relative influx was found to be 1.32. The affinity on Dihydrofolate reductase corresponds to a Ki of 0.013 nM. Besides, 12.1 nM corresponded to half-maximal inhibition in the assay on L1210 (IC50).

Turning to `CCC(CC1CNc2nc(N)nc(O)c2C1)c1ccc(C(=O)NC(CCC(=O)O)C(=O)O)cc1` (stereo unspecified), the figures for the IC50 (in assay [2]; in assay [3]; in the assay with L1210) were 80 nM, 660 nM and 34.6 nM, respectively. Moreover, the Relative influx in assay [1] is 1.36. Moreover, the Ki at Dihydrofolate reductase was > 1000 nM.

Take `CC(CC1CNc2nc(N)nc(O)c2C1)c1ccc(C(=O)NC(CCC(=O)O)C(=O)O)cc1` (stereo unspecified): the results for the IC50 (in assay [2]; in assay [3]; with L1210) were 17 nM, 1500 nM and 50.3 nM, respectively. Moreover, in assay [1], the Relative influx is 1.72. Moreover, the Ki on Dihydrofolate reductase is > 1000 nM.

Turning to `Nc1nc(O)c2c(n1)CCC(CNc1ccc(C(=O)NC(CCC(=O)O)C(=O)O)cc1)C2` (stereo unspecified), the values for the IC50 (in assay [2]; in assay [3]; with L1210) were 10 nM, 500 nM and 57.2 nM, respectively. For the same molecule, the Relative influx in assay [1] was found to be 1.54. For the same molecule, the Ki at Dihydrofolate reductase was > 1000 nM.

Usually Ki stands for a dissociation constant, usually derived from enzyme kinetics or from competition with a known ligand. Read a low Ki as tighter binding. Broadly, the IC50 is the concentration needed to halve the response being measured.
